Where a name gives a salt, the structure may show the parent alone.
Columns and labels:
[1] = system: carrageenin-induced foot edema; experiment: inhibition of carrageenin-induced foot edema test (C.E.); assay type: in vivo; details: oral; for inhibition in vivo at 4 µmol/kg: dose 0.004 millimoles/kg; for inhibition in vivo at 20 µmol/kg: dose 0.02 millimoles/kg; for C.E. percent inhibition (Table B): formula V amides; for C.E. percent inhibition (Table B, footnote a): (a) data obtained after 17 days on test and 9 medications
Description: (§1) Anti-inflammatory activity was determined using (1) the inhibition of carrageenin-induced foot edema test essentially described by Winter et al., Proc. Soc. Exp. Biol. and Med. 111, 554 (1962) as modified by Van Arman et al., J. Pharmacol. Exptl. Therap. 150, 328 (1965) and (2) a modification of the inhibition of adjuvant-induced arthritis test described by Pierson, J. Chronic Diseases 16, 863 (1963) and Glenn et al., Am. J. Vet. Res. 26, 1180 (1965).
(§2) The N-{2-,3- and 4-[R1 -(phenyl)-C(=X)]-phenyl-lower-alkyl}amines of formulas I, Ia and Ib of the invention have been tested in the carrageenin edema (CE) and adjuvant arthritis (AA) tests and found to have anti-inflammatory activity. For comparative purposes, data obtained in the carrageenin edema test on the reference compound (designated "Ref."), 4[(3-benzoylphenyl)methyl]morpholine, disclosed in French Patent 1,549,342, are also given. All data were obtained on oral administration.

[2] = system: adjuvant-induced arthritis; experiment: inhibition of adjuvant-induced arthritis test (A.A.); assay type: in vivo; details: oral; for inhibition in vivo at 20 µmol/kg: dose 0.02 millimoles/kg; for A.A. percent inhibition (Table B): formula V amides; for inhibition in vivo at 160 µmol/kg: dose 0.16 millimoles/kg; for A.A. percent inhibition (Table B, footnote a): (a) data obtained after 17 days on test and 9 medications; for inhibition in vivo at 5 µmol/kg: dose 0.005 millimoles/kg
Description: as §1, §2

[3] = read-out: C.E. percent inhibition
[4] = read-out: A.A. percent inhibition
[5] = dose 0.08 millimoles/kg, read-out: A.A. percent inhibition
[6] = dose 0.08 millimoles/kg, read-out: C.E. percent inhibition
[7] = dose 0.324 millimoles/kg, read-out: C.E. percent inhibition
[8] = dose 0.324 millimoles/kg, read-out: A.A. percent inhibition

CC(CN1CCCCC1CC1CCCCC1)c1cccc(C(=NO)c2ccccc2)c1 (stereo not shown) [Example 15, 2-cyclohexylmethyl-1-[2-(3-benzoylphenyl)propyl]piperidine oxime]
inhibition in vivo at 4 µmol/kg [1, 3]: 16% | inhibition in vivo at 20 µmol/kg [1, 3]: 43% | inhibition in vivo at 20 µmol/kg [2, 4]: 92% | inhibition in vivo at 80 µmol/kg [2, 5]: 91%

CC(CN1CCOCC1)c1cccc(C(=O)c2ccccc2)c1 (stereo not shown) [7H (base), 4-[2-(3-Benzoylphenyl)propyl]morpholine]
inhibition in vivo at 4 µmol/kg [1, 3]: 29% | inhibition in vivo at 20 µmol/kg [1, 3]: 44% | inhibition in vivo at 80 µmol/kg [2, 5]: 81%

NC(c1ccccc1)c1cccc(CN2CCOCC2)c1 (stereo not drawn) [Example 16B, 4-{[3-(α-Aminobenzyl)phenyl]methyl}morpholine dihydrochloride monohydrate]
inhibition in vivo at 80 µmol/kg [1, 6]: 0% | inhibition in vivo at 324 µmol/kg [1, 7]: 36% | inhibition in vivo at 324 µmol/kg [2, 8]: 0%

CC(C(=O)N1CCN(C2CCCCCC2)CC1)c1cccc(Cc2ccccc2)c1.Cl (stereo not drawn) [Example 25B, 4-Cycloheptyl-1-[α-(3-benzylphenyl)propionyl]piperazine hydrochloride]
C.E. percent inhibition (Table B) ([1]; dose 0.08 millimoles/kg): 25% | C.E. percent inhibition (Table B) ([1]; dose 0.324 millimoles/kg): 44% | A.A. percent inhibition (Table B) ([2]; dose 0.324 millimoles/kg): 78%

CC(CN1CCCC1CC1CCCCC1)c1cccc(C(O)c2ccccc2)c1 (stereo not drawn) [Example 3B, 2-Cyclohexylmethyl-1-{2-[3-(α-hydroxybenzyl)phenyl]propyl}pyrrolidine]
inhibition in vivo at 80 µmol/kg [1, 6]: 19% | inhibition in vivo at 324 µmol/kg [1, 7]: 63% | inhibition in vivo at 160 µmol/kg [2, 4]: 91%

CC(C(=O)N1CCCCC1CC1CCCCC1)c1cccc(C(=O)c2ccccc2)c1 (stereo not drawn) [Example 1 (Table B), 2-cyclohexylmethyl-1-[α-(3-benzoylphenyl)propionyl]piperidine]
C.E. percent inhibition (Table B) ([1]; dose 0.08 millimoles/kg): 21% | C.E. percent inhibition (Table B, footnote a) ([1]; dose 0.324 millimoles/kg): 36% | A.A. percent inhibition (Table B, footnote a) ([2]; dose 0.324 millimoles/kg): 67%

CC(CN1C(C)CCCC1C)c1cccc(C(=O)c2ccccc2)c1 (stereo not shown) [Example 13, 2,6-dimethyl-1-[2-(3-benzoylphenyl)propyl]piperidine]
inhibition in vivo at 4 µmol/kg [1, 3]: 0% | inhibition in vivo at 15 µmol/kg ([1]; dose 0.015 millimoles/kg, read-out: C.E. percent inhibition): 15% | inhibition in vivo at 60 µmol/kg ([1]; dose 0.06 millimoles/kg, read-out: C.E. percent inhibition): 37% | inhibition in vivo at 80 µmol/kg [1, 6]: 54% | inhibition in vivo at 324 µmol/kg [1, 7]: 56% | inhibition in vivo at 4 µmol/kg ([2]; dose 0.004 millimoles/kg, read-out: A.A. percent inhibition): 37% | inhibition in vivo at 15 µmol/kg ([2]; dose 0.015 millimoles/kg, read-out: A.A. percent inhibition): 52% | inhibition in vivo at 60 µmol/kg ([2]; dose 0.06 millimoles/kg, read-out: A.A. percent inhibition): 78%

CC(CN1CCCCC1CCCC1CCCCC1)c1cccc(C(=O)c2ccccc2)c1 (stereo not shown) [Example 7D, 2-(3-Cyclohexylpropyl)-1-[2-(3-benzoylphenyl)propyl]piperidine]
inhibition in vivo at 80 µmol/kg [1, 6]: 37% | inhibition in vivo at 324 µmol/kg [1, 7]: 49% | inhibition in vivo at 160 µmol/kg [2, 4]: 100%

COc1ccc(C(O)c2cccc(C(C)CN3CCCCC3CC3CCCCC3)c2)cc1 (stereo not drawn) [Example 3, 2-cyclohexylmethyl-1-{2-[3-(α-hydroxy-4-methoxybenzyl)phenyl]propyl}piperidine]
inhibition in vivo at 5 µmol/kg ([1]; dose 0.005 millimoles/kg, read-out: C.E. percent inhibition): 0% | inhibition in vivo at 20 µmol/kg [1, 3]: 3% | inhibition in vivo at 80 µmol/kg [1, 6]: 35% | inhibition in vivo at 5 µmol/kg [2, 4]: 0% | inhibition in vivo at 20 µmol/kg [2, 4]: 2% | inhibition in vivo at 80 µmol/kg [2, 5]: 30%

CC(C(=O)N1CCC(CC2CCCCC2)CC1)c1cccc(C(=O)c2ccccc2)c1 (stereo not drawn) [Example 1L, 4-Cyclohexylmethyl-1-[α-(3-benzoylphenyl)propionyl]piperidine]
C.E. percent inhibition (Table B) ([1]; dose 0.08 millimoles/kg): 13% | C.E. percent inhibition (Table B, footnote a) ([1]; dose 0.324 millimoles/kg): 31% | A.A. percent inhibition (Table B, footnote a) ([2]; dose 0.324 millimoles/kg): 74%

CC(CN1CCOCC1)c1ccc(C(=O)c2ccccc2)cc1 (stereo not shown) [Example 24A, 4-[2-(4-benzoylphenyl)propyl]morpholine hydrochloride]
inhibition in vivo at 80 µmol/kg [1, 6]: 44% | inhibition in vivo at 324 µmol/kg [1, 7]: 56% | inhibition in vivo at 324 µmol/kg [2, 8]: 78%

CC(CN1CCCCC1CC1CCCCC1)c1cccc(C(N)c2ccccc2)c1 (stereo not drawn) [Example 16, 2-cyclohexylmethyl-1-{2-[3-(α-aminobenzyl)phenyl]propyl}piperidine dihydrochloride]
inhibition in vivo at 4 µmol/kg [1, 3]: 16% | inhibition in vivo at 20 µmol/kg [1, 3]: 31% | inhibition in vivo at 5 µmol/kg [2, 4]: 80% | inhibition in vivo at 20 µmol/kg [2, 4]: 89% | inhibition in vivo at 80 µmol/kg [2, 5]: 108%

CC1CCCC(C)N1CCc1ccc(O)c(C(=O)c2ccccc2)c1 (stereo not shown) [Example 19, 2,6-dimethyl-1-[2-(3-benzoyl-4-hydroxyphenyl)ethyl]piperidine hydrochloride]
inhibition in vivo at 20 µmol/kg [1, 3]: 5% | inhibition in vivo at 80 µmol/kg [1, 6]: 0% | inhibition in vivo at 324 µmol/kg [1, 7]: 23% | inhibition in vivo at 160 µmol/kg [2, 4]: 1%

CC(CN1CCC2(CC1)OCCO2)c1ccc(C(=O)c2ccccc2)cc1.Cl (stereo not shown) [Example 24B, 8-[2-(4-benzoylphenyl)propyl]1,4-dioxa-8-azaspiro[4,5]decane hydrochloride]
inhibition in vivo at 80 µmol/kg [1, 6]: 38% | inhibition in vivo at 324 µmol/kg [1, 7]: 50% | inhibition in vivo at 80 µmol/kg [2, 5]: 30% | toxicity ([2]; dose 0.324 millimoles/kg): Toxic

CC(CN1CCCC1CC1CCCCC1)c1cccc(C(=O)c2ccccc2)c1 (stereo not shown) [Example 7A, 2-Cyclohexylmethyl-1-[2-(3-benzoylphenyl)propyl]pyrrolidine]
inhibition in vivo at 80 µmol/kg [1, 6]: 45% | inhibition in vivo at 324 µmol/kg [1, 7]: 60% | inhibition in vivo at 160 µmol/kg [2, 4]: 90%

CC(CN1CCCCC1CC1CCCCC1)c1cccc(C(=O)c2ccc(F)cc2)c1 (stereo not shown) [Example 7B, 2-Cyclohexylmethyl-1-{2-[3-(4-fluorobenzoyl)phenyl]propyl}piperidine]
inhibition in vivo at 4 µmol/kg [1, 3]: 3% | inhibition in vivo at 20 µmol/kg [1, 3]: 38% | inhibition in vivo at 5 µmol/kg [2, 4]: 61% | inhibition in vivo at 20 µmol/kg [2, 4]: 55% | inhibition in vivo at 80 µmol/kg [2, 5]: 85%

CC(CN1CCCCC1)c1cccc(C(=O)c2ccccc2)c1 (stereo not shown) [Example 14A, 1-[2-(3-Benzoylphenyl)propyl]piperidine hydrochloride]
inhibition in vivo at 80 µmol/kg [1, 6]: 39% | inhibition in vivo at 324 µmol/kg [1, 7]: 67% | inhibition in vivo at 80 µmol/kg [2, 5]: 49%

CC(CN1CCC2(CC1)OCCO2)c1cccc(C(=O)c2ccccc2)c1 (stereo not shown) [7G (base), 8-[2-(3-Benzoylphenyl)propyl]-1,4-dioxa-8-azaspiro[4,5]decane]
inhibition in vivo at 4 µmol/kg [1, 3]: 33% | inhibition in vivo at 20 µmol/kg [1, 3]: 42% | inhibition in vivo at 80 µmol/kg [2, 5]: 76%

CC(C(=O)N1CCN(C2CCCCC2)CC1)c1cccc(Cc2ccccc2)c1.Cl (stereo not drawn) [Example 25, 4-cyclohexyl-1-[α-(3-benzylphenyl)propionyl]piperazine hydrochloride]
C.E. percent inhibition (Table B) ([1]; dose 0.08 millimoles/kg): 0% | C.E. percent inhibition (Table B) ([1]; dose 0.324 millimoles/kg): 45% | A.A. percent inhibition (Table B) ([2]; dose 0.162 millimoles/kg): 79%

COc1ccc(C(=O)c2cccc(C(C)CN3CCCCC3CC3CCCCC3)c2)cc1 (stereo not shown) [Example 7, 2-cyclohexylmethyl-1-{2-[3-(4-methoxybenzoyl)phenyl]propyl}piperidine]
inhibition in vivo at 4 µmol/kg [1, 3]: 0% | inhibition in vivo at 20 µmol/kg [1, 3]: 22% | inhibition in vivo at 80 µmol/kg [2, 5]: 63%

CC(C(=O)N1CCN(C2CCCCC2)CC1)c1cccc(C(=O)c2ccccc2)c1.Cl (stereo not drawn) [Example 1E, 4-Cyclohexyl-1-[α-(3-benzoylphenyl)propionyl]piperazine hydrochloride]
convulsions and salivation ([1]; C.E. test, dose 0.324 millimoles/kg): Convulsions and salivation produced in 2 of 8 test animals | C.E. percent inhibition (Table B) ([1]; dose 0.08 millimoles/kg): 10% | C.E. percent inhibition (Table B) ([1]; dose 0.324 millimoles/kg): 61% | A.A. percent inhibition (Table B) ([2]; dose 0.08 millimoles/kg): 63%
